Reference: the supplement of paper PMC6045584
± gives the standard deviation of the averaged measurements.

Tests used:
[1] = compound: Cn1cc(C2=Nc3cc(NC(=O)C(N)C4CCCCC4)cc4c3C2=CNNC4=O)cn1; experiment: surviving fraction relative to DMSO-only wells; higher = less growth inhibition; conditions: exposure time: 5 days
Summary of the method: (§1)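 Inhibitors at 0.5, 1, 5, 10, 50, 100, 500 and 1000 nM were applied continuously for five days to tumour cell lines seeded in log phase at 250–500 cells per well in 384-well plates 24 hours earlier. Viability was measured by CellTiter-Glo luminescence and expressed as surviving fraction relative to the median of DMSO-only wells. Luminescence was taken after 10 minutes at room temperature.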

MDV3100 [2] = compound: T1, CNC(=O)c1ccc(N2C(=S)N(c3ccc(C#N)c(C(F)(F)F)c3)C(=O)C2(C)C)cc1F [MDV3100]; experiment: as above; conditions: exposure time: 5 days
Summary of the method: as §1

BI-2536 = compound: CC[C@@H]1C(=O)N(C)c2cnc(Nc3ccc(C(=O)NC4CCN(C)CC4)cc3OC)nc2N1C1CCCC1 [BI-2536]; experiment: area under dose-response curve of surviving fraction (unscaled, Aref=0) (surviving fraction x log10(nM)); higher = more resistant; conditions: exposure time: 5 days; dose range 0.5-1000 nM
Summary of the method: (§2)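 Inhibitor was applied to tumour cell lines at eight concentrations (0.5 to 1000 nM) for five days in 384-well plates. Luminescence from CellTiter-Glo, scaled to DMSO-only wells, gave surviving fractions in three screens per line, and these were fitted by 3-parameter logistic regression with the drc R package. The area under the curve is an unscaled activity area. Aref was 0, and dose was on a log10 scale.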

CANERTINIB = compound: C=CC(=O)Nc1cc2c(Nc3ccc(F)c(Cl)c3)ncnc2cc1OCCCN1CCOCC1 [CANERTINIB]; experiment: as above; conditions: exposure time: 5 days; dose range 0.5-1000 nM
Summary of the method: as §2

MDV3100 [3] = compound: T1, MDV3100; experiment: as above; conditions: exposure time: 5 days; dose range 0.5-1000 nM
Summary of the method: as §2

SNX-5422 = compound: CC1(C)CC(=O)c2c(C(F)(F)F)nn(-c3ccc(C(N)=O)c(N[C@H]4CC[C@H](OC(=O)CN)CC4)c3)c2C1 [SNX-5422]; experiment: as above; conditions: exposure time: 5 days; dose range 0.5-1000 nM
Summary of the method: as §2

| Test System | surviving fraction ([1]; 0.5 nM) | surviving fraction ([1]; 1 nM) | surviving fraction ([1]; 5 nM) | surviving fraction ([1]; 10 nM) | surviving fraction ([1]; 50 nM) | surviving fraction ([1]; 100 nM) | surviving fraction ([1]; 500 nM) | surviving fraction ([1]; 1000 nM) | surviving fraction (MDV3100 [2]; 0.5 nM) | surviving fraction (MDV3100 [2]; 1 nM) | surviving fraction (MDV3100 [2]; 5 nM) | surviving fraction (MDV3100 [2]; 10 nM) | surviving fraction (MDV3100 [2]; 50 nM) | surviving fraction (MDV3100 [2]; 100 nM) | surviving fraction (MDV3100 [2]; 500 nM) | surviving fraction (MDV3100 [2]; 1000 nM) | area under dose-response curve (BI-2536) | area under dose-response curve (CANERTINIB) | area under dose-response curve (MDV3100 [3]) | area under dose-response curve (SNX-5422) |
| --- | --- | --- | --- | --- | --- | --- | --- | --- | --- | --- | --- | --- | --- | --- | --- | --- | --- | --- | --- | --- |
| HCC78 LUNG | 0.91 ± 0.095 | 1.13 ± 0.26 | 0.993 ± 0.07 | 1.03 ± 0.17 | 0.887 ± 0.11 | 0.471 ± 0.29 | 0.0453 ± 0.011 | 0.0623 ± 0.013 | 0.976 ± 0.13 | 0.75 ± 0.27 | 1.03 ± 0.11 | 0.972 ± 0.14 | 0.799 ± 0.14 | 0.925 ± 0.092 | 0.664 ± 0.045 | 0.451 ± 0.051 | 0.803 | 2.55 | 2.9 | 1.71 |
| HCC1395 BREAST | 0.805 ± 0.1 | 0.961 ± 0.16 | 0.938 ± 0.13 | 0.975 ± 0.11 | 0.766 ± 0.071 | 0.68 ± 0.17 | 0.578 ± 0.088 | 0.521 ± 0.065 | 1.18 ± 0.027 | 1.14 ± 0.089 | 1.24 ± 0.075 | 1.08 ± 0.19 | 1.18 ± 0.15 | 1.1 ± 0.15 | 1.18 ± 0.16 | 1.16 ± 0.024 | 2.69 | 3.33 | 3.87 | 3.15 |
| HCC1806 BREAST | 1.08 ± 0.062 | 1.16 ± 0.14 | 1.09 ± 0.071 | 1.05 ± 0.092 | 0.528 ± 0.15 | 0.145 ± 0.041 | 0.0373 ± 0.0042 | 0.0433 ± 0.0025 | 1.01 ± 0.032 | 1.07 ± 0.067 | 1.13 ± 0.045 | 0.993 ± 0.074 | 1.14 ± 0.045 | 1.12 ± 0.049 | 1.04 ± 0.051 | 1.03 ± 0.06 | 0.671 | 2.12 | 3.52 | 1.85 |
| HMLE3 BREAST | 1.02 ± 0.013 | 0.984 ± 0.069 | 1.01 ± 0.069 | 1.05 ± 0.1 | 0.928 ± 0.015 | 0.924 ± 0.05 | 0.319 ± 0.049 | 0.0807 ± 0.0095 | 0.981 ± 0.05 | 0.951 ± 0.018 | 0.984 ± 0.026 | 0.946 ± 0.049 | 0.975 ± 0.12 | 1 ± 0.09 | 0.98 ± 0.058 | 1.03 ± 0.083 | 1.26 | 2.91 | 3.23 | 1.89 |
| HS578T BREAST | 0.986 ± 0.027 | 1.06 ± 0.057 | 0.946 ± 0.14 | 0.927 ± 0.037 | 0.788 ± 0.051 | 0.485 ± 0.049 | 0.162 ± 0.0082 | 0.174 ± 0.021 | 0.974 ± 0.073 | 1.05 ± 0.041 | 1.03 ± 0.056 | 0.979 ± 0.091 | 1.15 ± 0.096 | 1.02 ± 0.28 | 1.01 ± 0.053 | 0.991 ± 0.085 | 0.912 | 2.92 | 3.38 | 2.21 |
| HT1080 SOFT TISSUE | 0.977 ± 0.013 | 1.01 ± 0.03 | 0.987 ± 0.028 | 1.03 ± 0.025 | 0.879 ± 0.041 | 0.812 ± 0.013 | 0.153 ± 0.0023 | 0.122 ± 0.016 | 1.052 ± 0.0076 | 1.07 ± 0.03 | 1.063 ± 0.008 | 1.05 ± 0.016 | 1.02 ± 0.018 | 1.04 ± 0.045 | 0.999 ± 0.015 | 0.994 ± 0.027 | 1.26 | 3.29 | 3.42 | 2.11 |
| HUO3N1 BONE | 1.01 ± 0.021 | 0.991 ± 0.062 | 1.02 ± 0.039 | 1.03 ± 0.023 | 0.975 ± 0.043 | 0.863 ± 0.041 | 0.504 ± 0.024 | 0.319 ± 0.04 | 1.01 ± 0.018 | 0.989 ± 0.025 | 1.01 ± 0.044 | 1.03 ± 0.044 | 1.06 ± 0.054 | 1.02 ± 0.041 | 1.01 ± 0.069 | 1.01 ± 0.019 | 1.56 | 3.18 | 3.37 | 2.53 |
| JIMT1 BREAST | 0.921 ± 0.046 | 0.941 ± 0.051 | 0.911 ± 0.023 | 0.9362 ± 0.0086 | 0.874 ± 0.037 | 0.927 ± 0.042 | 0.803 ± 0.011 | 0.424 ± 0.025 | 0.964 ± 0.025 | 0.9673 ± 0.007 | 1.01 ± 0.02 | 0.983 ± 0.02 | 1.04 ± 0.048 | 1.07 ± 0.076 | 1.05 ± 0.055 | 0.982 ± 0.025 | 0.911 | 2.93 | 3.33 | 2.23 |
| JURKAT HAEMATOPOIETIC AND LYMPHOID TISSUE | 1.08 ± 0.016 | 1.13 ± 0.013 | 1.07 ± 0.021 | 1.06 ± 0.036 | 0.868 ± 0.019 | 0.295 ± 0.022 | 0.023 | 0.0237 ± 0.00058 | 1.095 ± 0.0049 | 1.1 ± 0.02 | 1.09 ± 0.022 | 1.06 ± 0.018 | 1.05 ± 0.015 | 1.06 ± 0.031 | 1 ± 0.027 | 0.997 ± 0.039 | 0.479 | 3.29 | 3.49 | 1.7 |
| LM7 BONE | 0.979 ± 0.073 | 0.898 ± 0.06 | 1.04 ± 0.07 | 1.01 ± 0.11 | 0.826 ± 0.017 | 0.651 ± 0.033 | 0.119 ± 0.015 | 0.0753 ± 0.0038 | 0.992 ± 0.053 | 1.01 ± 0.073 | 1.07 ± 0.096 | 1.06 ± 0.03 | 1.15 ± 0.09 | 1.14 ± 0.087 | 1.07 ± 0.096 | 0.963 ± 0.05 | 0.659 | 2.42 | 3.51 | 1.88 |
| MCF7 BREAST | 0.913 ± 0.043 | 0.918 ± 0.052 | 0.92 ± 0.023 | 0.865 ± 0.022 | 0.989 ± 0.022 | 0.885 ± 0.029 | 0.745 ± 0.02 | 0.575 ± 0.011 | 0.84 ± 0.029 | 0.822 ± 0.031 | 0.866 ± 0.058 | 0.767 ± 0.038 | 0.932 ± 0.03 | 0.992 ± 0.025 | 0.97 ± 0.014 | 0.897 ± 0.028 | 1.8 | 2.76 | 2.89 | 2.3 |
| MDAMB157 BREAST | 0.982 ± 0.061 | 0.965 ± 0.13 | 1.02 ± 0.065 | 0.994 ± 0.12 | 1 ± 0.044 | 0.916 ± 0.1 | 0.425 ± 0.057 | 0.172 ± 0.043 | 0.935 ± 0.093 | 0.954 ± 0.071 | 0.933 ± 0.049 | 1.01 ± 0.079 | 0.927 ± 0.077 | 0.952 ± 0.071 | 0.853 ± 0.044 | 0.866 ± 0.097 | 0.791 | 2.78 | 3.08 | 2.28 |
| MDAMB436 BREAST | 0.847 ± 0.079 | 0.911 ± 0.097 | 0.871 ± 0.05 | 0.852 ± 0.11 | 0.813 ± 0.051 | 0.577 ± 0.031 | 0.284 ± 0.02 | 0.228 ± 0.011 | 0.965 ± 0.086 | 0.884 ± 0.076 | 0.9783 ± 0.0076 | 0.95 ± 0.024 | 0.999 ± 0.1 | 0.9082 ± 0.0022 | 0.925 ± 0.083 | 0.86 ± 0.036 | 1.46 | 2.86 | 3.1 | 2.16 |
| MDAMB453 BREAST | 0.971 ± 0.011 | 1.01 ± 0.034 | 0.999 ± 0.026 | 1.01 ± 0.04 | 0.784 ± 0.044 | 0.293 ± 0.013 | 0.179 ± 0.019 | 0.206 ± 0.011 | 0.953 ± 0.045 | 0.942 ± 0.071 | 0.962 ± 0.055 | 0.98 ± 0.07 | 0.956 ± 0.054 | 0.967 ± 0.037 | 0.985 ± 0.032 | 0.924 ± 0.0079 | 0.857 | 3.19 | 3.16 | 2.06 |
| MDAMB468 BREAST | 0.95 ± 0.0069 | 0.975 ± 0.067 | 0.984 ± 0.049 | 0.978 ± 0.031 | 0.858 ± 0.025 | 0.786 ± 0.11 | 0.151 ± 0.0051 | 0.0767 ± 0.0046 | 0.972 ± 0.053 | 0.952 ± 0.072 | 1.05 ± 0.11 | 1.01 ± 0.068 | 1.14 ± 0.094 | 1.04 ± 0.13 | 1.05 ± 0.038 | 0.97 ± 0.11 | 1.06 | 2.41 | 3.41 | 1.94 |
